From patent publication US12569498B2, “Methods and compositions for the prevention and treatment of ischemia reperfusion injury and infection” (CHILDREN'S NATIONAL MEDICAL CENTER, priority 2019, dated 2026)
“Also recorded” adds a separate entry of the source.

Tests used:
[1] = literature, cited from earlier work; for testicular myeloperoxidase activity: acutely; for testicular myeloperoxidase activity / long term spermatogenesis: animal models of testicular torsion
[2] = Renal scar formation and trichrome collagen quantification after acute pyelonephritis; format: in vivo, C3H/HeOuJ mice; settings: 21 days following completion of antibiotic therapy; varenicline plus ceftriaxone vs ceftriaxone alone; p=0.001
Procedure: To initiate pyelonephritis, the bladder was catheterized with a 24-gauge angiocatheter and a total volume of 100 μL of a phosphate-buffered saline containing […] colony forming units (CFU) of CFT073 uropathogenic Escherichia coli (UPEC) was then instilled.
Tissues were preserved in formalin for 72 hours then stored in ethanol. Sections were cut to a 5 μm thickness and stained with H&E or Masson trichrome. Photographs were obtained at 20× resolution with Olympus VS120 virtual slide microscope system. The images were then analyzed with ImageJ Fiji software in order to quantify collagen deposition as previously described (Chen 2017). As collagen deposition would be expected as long-term sequelae of IRI, the trichrome stains of the long-term specimen were examined. All artifacts from the staining process as well as gross collecting system were cropped from these images prior to analysis. A color deconvolution plugin was used to separate the trichrome images into the separate colors. Analysis was performed based upon the percentage of deposition of collagen in the green image compared to the overall area of the kidneys.
Tissues harvested 21 days following completion of antibiotic therapy were subjected to trichome staining to assess for global collagen deposition. After removing artifacts (to ensure only parenchyma was included in the analysis), a color deconvolution plugin was used for ImageJ to divide the images into the respective three colors of the trichrome stain. A threshold was set and collagen was quantified as a percentage of green color in respect to the area of the entire kidney (FIG. 13).

[3] = system: CFT073 uropathogenic Escherichia coli (UPEC); settings: kidneys harvested after the final dose of antibiotics; ceftriaxone 250 mg/kg s.c. twice daily for 5 days
Procedure: As previously described, female C3H/HeOuJ mice were utilized due to a high incidence of vesicoureteral reflux (VUR) (Li 2017; Murawski 2010; Bowen 2013) and reliable creation of pyelonephritis following bladder inoculation. To initiate pyelonephritis, the bladder was catheterized with a 24-gauge angiocatheter and a total volume of 100 μL of a phosphate-buffered saline containing 108 colony forming units (CFU) of CFT073 uropathogenic Escherichia coli (UPEC) was then instilled. Following the initial bladder inoculation, pyelonephritis was allowed to progress untreated for 5 days.
Following the initial 5-day incubation period, 2 mice were sacrificed to confirm infection. The remaining mice were then treated with ceftriaxone alone (control) or ceftriaxone with varenicline (treatment). All mice received 250 mg/kg of subcutaneous ceftriaxone administered twice daily for a period of 5 days. Animals in the treatment group also received a concurrent twice-daily dose of intraperitoneal varenicline (1 mg/kg) during the first 48 hours of treatment. […] Animals were sacrificed at 14 days following the initial bladder inoculation to assess short-term outcomes, while long-term outcomes were assessed 30 days following initial bladder inoculation.

[4] = system: CD45+ immune cells in the torsed testis; experiment: Flow cytometry of CD45+ immune cell infiltrate in testis after testicular torsion; format: in vivo, CD1 mice; settings: cytisine 0.1 μg/gram i.p. 1 hour before torsion; 18 hours after reperfusion; vs mice without cytisine; P<0.0001
Procedure: (§1) Unilateral testicular torsion was induced in mature male CD1 mice by rotating the right testicle 720 degrees for 2 hours. Treatment with cytisine or varenicline was initiated one hour prior or one hour after the creation of testicular torsion. Testes were harvested 18 hours and 30 days following reperfusion. The acute inflammatory response was quantified with FACS analysis, […], reduced glutathione levels and quantification of the expression of IRI markers. Long term (30 day) outcomes were assessed by histologic evaluation, quantification of the expression of pro-fibrotic genes and measurement of testicular weight.
Mice underwent testicular torsion as previously described (Lysiak 2001). Briefly, mice were anesthetized with isoflurane over a heating pad. […]
Eighteen hours after reperfusion of the testis in the cytisine group and 48 hours after reperfusion in the varenicline group, bilateral testes were harvested, homogenized and digested with digestion solution containing 0.5% FBS, 20 mM HEPES, RPMI Medium, 0.057 U/ml DNase I, 1 mg/ml collagenase b. Cells were washed, counted with a hemocytometer and 1 million then diluted to 1 million cells per mL. […] For each sample 300,000 live cells were counted using BD FACSCalibur (BD Biosciences, San Jose, CA) and analyzed with FlowJo 9.0 software (TreeStar, Ashland, OR).

[5] = system: oxidative stress within the testis; experiment: Myeloperoxidase activity and reduced glutathione levels in testis after testicular torsion; format: in vivo, CD1 mice; settings: cytisine an hour prior to onset of torsion; vs untreated controls
Procedure: Mice underwent testicular torsion as previously described (Lysiak 2001). Briefly, mice were anesthetized with isoflurane over a heating pad. The right testis was delivered through a low scrotal incision and rotated counterclockwise 720 degrees to induce ischemia for 2 hours. […] All animals were injected with long-acting buprenorphine (0.1 mg/kg) for long-term pain control prior to being recovered from anesthesia. […] Mice kept for 30 days after surgery were weighed on a weekly basis.
(§2) Cytisine (Sigma-Aldrich, St. Louis, MO) was administered intraperitoneally at a dose of 0.1 μg/gram either 1 hour before torsion or 1 hour after torsion (1 hour prior to detorsion). Varenicline ([…]) was administered as an intraperitoneal injection one hour after the onset of torsion and then continued every 12 hours for a total of 4 doses.
Tissues were harvested and stored at −80° C. until use. Glutathione reductase activity was measured by use of glutathione reductase assay Kit (Sigma-Aldrich, St. Louis, MO). Testis tissue was homogenized in 5% sulfosalicylic Acid (SSA) solution. Samples were then centrifuged and supernatant was reserved. Supernatants were added to a reaction mixture containing 95 mM potassium phosphate buffer, pH 7.0, 0.95 mM EDTA, 0.038 mg/mL NADPH, 0.031 mg/mL DTNB, 0.115 units/mL glutathione reductase, and 0.24% SSA. Absorbance at 412 nm was recorded. Glutathione results were expressed as nm GSH per mL sample.
Following an ischemic event, the initial inflammatory response is characterized by an increase in oxidative stress and production of reactive oxygen species. In order to determine the effect of cytisine treatment on the level of reactive oxygen species (ROS) following testicular torsion, testicular levels of myeloperoxidase (MPO), a marker of neutrophil activation, and reduced glutathione (GSH) levels (an indirect measure of oxidative stress within the testis) were measured.

[6] = Testis weight vs contralateral testis 30 days after torsion (testicular atrophy); format: in vivo, CD1 mice; settings: 30 days after reperfusion, vs untreated
Procedure: as §1
(§3) Mice underwent testicular torsion as previously described (Lysiak 2001). Briefly, mice were anesthetized with isoflurane over a heating pad. The right testis was delivered through a low scrotal incision and rotated counterclockwise 720 degrees to induce ischemia for 2 hours. […] All animals were injected with long-acting buprenorphine (0.1 mg/kg) for long-term pain control prior to being recovered from anesthesia. Mice were euthanized either 18 hours or 30 days following torsion. Mice kept for 30 days after surgery were weighed on a weekly basis.
as §2
The degree of testicular atrophy was determined by comparing the weight of the torsed testis to the contralateral control testis 30 days after reperfusion.

[7] = Masson trichrome staining and ImageJ quantification of collagen in testis 30 days after torsion; format: in vivo, CD1 mice; settings: 30 days following torsion, vs untreated, cytisine p<0.01, varenicline p<0.0001
Procedure: as §3, §2
Testis tissue was harvested and stored in 70% ethanol. Fixation, embedding, sectioning, and staining were performed by the research pathology core at George Washington University. Sections were cut at a thickness of […]. Tissues were stained for H&E or Masson trichrome. Photographs were scanned at 20× resolution with Olympus VS120 virtual slide microscope system. TIF images were analyzed with ImageJ Fiji software as previously described (Caetano, Fronza et al. 2016). The color deconvolution plugin was used to perform ImageJ analysis on an area measuring 3000 square pixels. Automatic thresholding was performed. The amount of collagen in each area is expressed as the percentage of blue pixels in the image area taken as an average of 3 non-overlapping measurements.

[8] = system: pro-fibrotic genes Col1, Col3, Vim, SMA; experiment: RT-PCR of pro-fibrotic markers in testis 30 days after torsion; format: in vivo, CD1 mice; settings: for relative expression of collagen 1 (Col1) / relative expression of collagen 3 (Col3) / relative expression of smooth muscle actin (Sma) / relative expression of vimentin (Vim): 30 days following torsion, vs untreated
Procedure: as §3, §2
RNA was isolated from testis tissue using RNEasy mini kit (Qiagen, Hilden, Germany) using the manufacturer's protocol. RNA concentration was measured with Nanodrop 8000 (Thermo Scientific, Waltham, MA). cDNA was synthesized using Superscript First-Strand Synthesis system for RT-PCR (Invitrogen, Carlsbad, CA) on a GeneAmp PCR System 9700 (Applied Biosystems, Foster City, CA) Real-Real-time PCR was performed using QuantStudio 7 Flex (Applied Biosystems, Foster City, CA). Software Quantstudio Real-Time PCR Software (Thermo Fisher Scientific, Waltham, MA). TaqMan Gene Expression Assays (Applied Biosystems, Foster City, CA). Standard TaqMan primers were used for Col1, Col3, Vim, SMA.

[9] = cited from earlier work
α7nAChR = α7nAChR (Homo sapiens, UniProt P36544); settings: peak concentrations in smokers / levels with therapeutic dosing in humans (Campling 2013); cited from earlier work
Chain of α7nAChR (P36544 23-502): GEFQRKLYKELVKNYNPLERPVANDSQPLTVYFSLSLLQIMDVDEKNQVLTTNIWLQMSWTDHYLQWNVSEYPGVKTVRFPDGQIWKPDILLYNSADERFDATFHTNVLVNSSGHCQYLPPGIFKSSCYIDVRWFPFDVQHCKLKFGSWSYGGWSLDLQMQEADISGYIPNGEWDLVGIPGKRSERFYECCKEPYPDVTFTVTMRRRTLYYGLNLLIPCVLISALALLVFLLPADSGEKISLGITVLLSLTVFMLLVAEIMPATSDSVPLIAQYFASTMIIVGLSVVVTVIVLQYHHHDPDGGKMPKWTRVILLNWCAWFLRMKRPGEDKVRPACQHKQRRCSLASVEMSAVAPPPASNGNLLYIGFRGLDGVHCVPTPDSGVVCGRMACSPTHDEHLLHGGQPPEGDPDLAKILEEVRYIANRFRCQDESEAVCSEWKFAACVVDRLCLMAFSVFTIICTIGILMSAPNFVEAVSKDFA

[10] = system: adhesion molecules E-selectin, ICAM-1 and VCAM-1; settings: Saeed 2005; cited from earlier work
[11] = administered prior to testicular reperfusion
[12] = administration prior to warm renal ischemia (Gigliotti 2013)

In the case of `COc1cc(C(C)=O)ccc1O` [Apocynin], the testicular myeloperoxidase activity [1] is listed as “decrease testicular myeloperoxidase activity” and the long term spermatogenesis [1] is listed as “preserve long term spermatogenesis”.
In the case of `Cc1ccc(-c2ncc(Cl)cc2-c2ccc(S(C)(=O)=O)cc2)cn1` [Etoricoxib], the apoptosis [1, 11] is given as “decrease apoptosis” and the oxidative stress [1, 11] is given as “decrease”.
In the case of `[Zn]` [Zinc], the testicular myeloperoxidase activity [1] is listed as “decrease testicular myeloperoxidase activity” and the long term spermatogenesis [1] is listed as “preserve long term spermatogenesis”.
In the case of `CO/N=C(\C(=O)N[C@@H]1C(=O)N2C(C(=O)O)=C(CSc3nc(=O)c(=O)[nH]n3C)CS[C@H]12)c1csc(N)n1` [ceftriaxone], the “collagen deposition in the kidneys (percentage of green pigment per area of entire kidney)” value [2] is reported as “significantly higher” and the “bacterial growth from cultured kidneys” value [3] is reported as “lack of bacterial growth”.
In the case of `O=c1cccc2n1C[C@@H]1CNC[C@H]2C1` [cytisine], the “CD45+ immune cells in the torsed testis” value [4] is reported as “significantly decreased CD45+ immune cells; also recorded: decreases the number of CD45+ cells”, the “myeloperoxidase activity in testis” value [5] is reported as “decreased levels of myeloperoxidase activity” and the “reduced glutathione levels in testis” value [5] is reported as “increased levels reduced glutathione”. The “testicular atrophy (weight of torsed testis vs contralateral control testis)” value ([6]; drug given an hour after the onset of torsion) was “limited long term testicular atrophy”, the “testicular atrophy (weight of torsed testis vs contralateral control testis)” value ([6]; drug given an hour after the onset of torsion, listed as Cytisine) was “limited testicular atrophy” and the “testicular atrophy (weight of torsed testis vs contralateral control testis)” value ([6]; drug given an hour prior to torsion, p<0.05) was “significantly less testicular atrophy; also recorded: decreased testicular atrophy”. For the same molecule, the “collagen content of testis (trichrome staining, percentage of collagen)” value [7] was “untreated group had significantly higher collagen content; also recorded: reduced histologic evidence of testicular fibrosis”, the “collagen content of testis (trichrome staining, percentage of collagen)” value ([7]; listed as Cytisine) was “significantly higher percentage of collagen in the untreated animals” and the “relative expression of collagen 1 (Col1)” value [8] was “reduced the expression; also recorded: significantly decreased”. For the same molecule, the “relative expression of collagen 3 (Col3)” value [8] was “reduced the expression; also recorded: significantly decreased”, the “relative expression of smooth muscle actin (Sma)” value [8] was “reduced the expression; also recorded: significantly decreased” and the “relative expression of vimentin (Vim)” value [8] was “reduced the expression; also recorded: significantly decreased”. The “relative expression of collagen 1 (Col1)” value ([8]; listed as Cytisine) was “significantly decreased”, the “relative expression of collagen 3 (Col3)” value ([8]; listed as Cytisine) was “significantly decreased” and the “relative expression of smooth muscle actin (Sma)” value ([8]; listed as Cytisine) was “significantly decreased”. For the same molecule, the “relative expression of vimentin (Vim)” value ([8]; listed as Cytisine) was “significantly decreased”, the “expression of pro-fibrotic genes / genetic markers of testicular fibrosis” value ([8]; long term (30 day) outcome, genes not itemised) was “decreased expression of pro-fibrotic genes” and the “acute immune infiltrate after warm renal ischemia” value [9, 12] was “reduced the acute immune infiltrate”. The “long term renal fibrosis after warm renal ischemia” value [9, 12] was “prevented long term renal fibrosis”, the “long term renal function after warm renal ischemia” value [9, 12] was “preserved long term renal function” and the “activation of α7nAChR at clinically reached concentrations” value (α7nAChR) was “do not activate α7nAChR”.
In the case of `CN1CCC[C@H]1c1cccnc1` [nicotine], the “protection of the kidney from IRI” value ([9]; mouse, after renal artery ligation (Sadis 2007, Yeboah 2008)) is given as “protects the mouse kidney from IRI”, the “activation of α7nAChR at clinically reached concentrations” value (α7nAChR) is given as “do not activate α7nAChR” and the “expression of adhesion molecules such as E-selectin, ICAM-1 and VCAM-1” value [10] is given as “decreasing the expression of adhesion molecules”.
